Results from the NIST ThermoML archive (doi:10.1021/je800786k).
Numbers after ± are expanded uncertainties.

Settings: Liquid, Vibrating tube method

CCC(C)N (configuration not stated) [2-butanamine]
Settings | mass density [kg/m3]
293.15 K, 100 kPa | 725.3 ± 1.1
293.15 K, 10000 kPa | 733.6 ± 1.1
293.15 K, 20000 kPa | 741.2 ± 1.1
293.15 K, 30000 kPa | 748.1 ± 1.1
293.15 K, 40000 kPa | 754.5 ± 1.1
293.15 K, 50000 kPa | 760.4 ± 1.2
293.15 K, 60000 kPa | 766.1 ± 1.2
293.15 K, 70000 kPa | 771.3 ± 1.2
293.15 K, 80000 kPa | 776.3 ± 1.3
293.15 K, 90000 kPa | 781.1 ± 1.3
293.15 K, 100000 kPa | 785.5 ± 1.3
293.15 K, 110000 kPa | 789.7 ± 1.4
293.15 K, 120000 kPa | 793.9 ± 1.4
293.15 K, 130000 kPa | 797.8 ± 1.4
293.15 K, 140000 kPa | 801.5 ± 1.5
303.15 K, 100 kPa | 715.1 ± 1.1
303.15 K, 10000 kPa | 724.3 ± 1.1
303.15 K, 20000 kPa | 732.4 ± 1.1
303.15 K, 30000 kPa | 739.7 ± 1.1
303.15 K, 40000 kPa | 746.3 ± 1.1
303.15 K, 50000 kPa | 752.5 ± 1.2
303.15 K, 60000 kPa | 758.3 ± 1.2
303.15 K, 70000 kPa | 763.7 ± 1.2
303.15 K, 80000 kPa | 768.9 ± 1.3
303.15 K, 90000 kPa | 773.8 ± 1.3
303.15 K, 100000 kPa | 778.4 ± 1.4
303.15 K, 110000 kPa | 782.9 ± 1.4
303.15 K, 120000 kPa | 787.2 ± 1.4
303.15 K, 130000 kPa | 791.2 ± 1.5
303.15 K, 140000 kPa | 795.2 ± 1.5
313.15 K, 100 kPa | 705 ± 1.1
313.15 K, 10000 kPa | 714.8 ± 1.1
313.15 K, 20000 kPa | 723.4 ± 1.1
313.15 K, 30000 kPa | 731.1 ± 1.1
313.15 K, 40000 kPa | 738.2 ± 1.1
313.15 K, 50000 kPa | 744.7 ± 1.2
313.15 K, 60000 kPa | 750.8 ± 1.2
313.15 K, 70000 kPa | 756.5 ± 1.3
313.15 K, 80000 kPa | 761.9 ± 1.3
313.15 K, 90000 kPa | 767 ± 1.3
313.15 K, 100000 kPa | 771.8 ± 1.4
313.15 K, 110000 kPa | 776.4 ± 1.4
313.15 K, 120000 kPa | 780.8 ± 1.5
313.15 K, 130000 kPa | 785.1 ± 1.5
313.15 K, 140000 kPa | 789.1 ± 1.5
323.15 K, 100 kPa | 694.7 ± 1.1
323.15 K, 10000 kPa | 705.4 ± 1.1
323.15 K, 20000 kPa | 714.5 ± 1.1
323.15 K, 30000 kPa | 722.8 ± 1.1
323.15 K, 40000 kPa | 730.4 ± 1.2
323.15 K, 50000 kPa | 737.2 ± 1.2
323.15 K, 60000 kPa | 743.6 ± 1.2
323.15 K, 70000 kPa | 749.5 ± 1.3
323.15 K, 80000 kPa | 755.2 ± 1.3
323.15 K, 90000 kPa | 760.4 ± 1.3
323.15 K, 100000 kPa | 765.4 ± 1.4
323.15 K, 110000 kPa | 770.2 ± 1.4
323.15 K, 120000 kPa | 774.7 ± 1.5
323.15 K, 130000 kPa | 779 ± 1.5
323.15 K, 140000 kPa | 783.2 ± 1.6
333.15 K, 10000 kPa | 695.4 ± 1.1
333.15 K, 20000 kPa | 705.2 ± 1.1
333.15 K, 30000 kPa | 714 ± 1.1
333.15 K, 40000 kPa | 722 ± 1.2
333.15 K, 50000 kPa | 729.2 ± 1.2
333.15 K, 60000 kPa | 735.8 ± 1.2
333.15 K, 70000 kPa | 742.1 ± 1.3
333.15 K, 80000 kPa | 748 ± 1.3
333.15 K, 90000 kPa | 753.4 ± 1.4
333.15 K, 100000 kPa | 758.6 ± 1.4
333.15 K, 110000 kPa | 763.5 ± 1.5
333.15 K, 120000 kPa | 768.1 ± 1.5
333.15 K, 130000 kPa | 772.5 ± 1.5
333.15 K, 140000 kPa | 776.9 ± 1.6
343.15 K, 10000 kPa | 685.9 ± 1.1
343.15 K, 20000 kPa | 696.6 ± 1.1
343.15 K, 30000 kPa | 706 ± 1.2
343.15 K, 40000 kPa | 714.3 ± 1.2
343.15 K, 50000 kPa | 721.9 ± 1.2
343.15 K, 60000 kPa | 728.8 ± 1.3
343.15 K, 70000 kPa | 735.3 ± 1.3
343.15 K, 80000 kPa | 741.3 ± 1.3
343.15 K, 90000 kPa | 747.1 ± 1.4
343.15 K, 100000 kPa | 752.4 ± 1.4
343.15 K, 110000 kPa | 757.4 ± 1.5
343.15 K, 120000 kPa | 762.3 ± 1.5
343.15 K, 130000 kPa | 767 ± 1.6
343.15 K, 140000 kPa | 771.3 ± 1.6
353.15 K, 10000 kPa | 675.8 ± 1.1
353.15 K, 20000 kPa | 687.1 ± 1.1
353.15 K, 30000 kPa | 697.2 ± 1.2
353.15 K, 40000 kPa | 705.8 ± 1.2
353.15 K, 50000 kPa | 714 ± 1.2
353.15 K, 60000 kPa | 721.2 ± 1.3
353.15 K, 70000 kPa | 728 ± 1.3
353.15 K, 80000 kPa | 734.2 ± 1.4
353.15 K, 90000 kPa | 740.1 ± 1.4
353.15 K, 100000 kPa | 745.7 ± 1.4
353.15 K, 110000 kPa | 751 ± 1.5
353.15 K, 120000 kPa | 756 ± 1.5
353.15 K, 130000 kPa | 760.7 ± 1.6
353.15 K, 140000 kPa | 765.3 ± 1.6
363.15 K, 10000 kPa | 665.7 ± 1.2
363.15 K, 20000 kPa | 678 ± 1.2
363.15 K, 30000 kPa | 688.5 ± 1.2
363.15 K, 40000 kPa | 697.8 ± 1.2
363.15 K, 50000 kPa | 706.2 ± 1.2
363.15 K, 60000 kPa | 713.9 ± 1.3
363.15 K, 70000 kPa | 721 ± 1.3
363.15 K, 80000 kPa | 727.5 ± 1.4
363.15 K, 90000 kPa | 733.6 ± 1.4
363.15 K, 100000 kPa | 739.4 ± 1.5
363.15 K, 110000 kPa | 744.8 ± 1.5
363.15 K, 120000 kPa | 749.9 ± 1.6
363.15 K, 130000 kPa | 754.8 ± 1.6
363.15 K, 140000 kPa | 759.5 ± 1.7
373.15 K, 10000 kPa | 655.5 ± 1.2
373.15 K, 20000 kPa | 668.9 ± 1.2
373.15 K, 30000 kPa | 680.1 ± 1.2
373.15 K, 40000 kPa | 690 ± 1.2
373.15 K, 50000 kPa | 698.2 ± 1.3
373.15 K, 60000 kPa | 707 ± 1.3
373.15 K, 70000 kPa | 714 ± 1.3
373.15 K, 80000 kPa | 720.9 ± 1.4
373.15 K, 90000 kPa | 727.2 ± 1.4
373.15 K, 100000 kPa | 733.2 ± 1.5
373.15 K, 110000 kPa | 738.7 ± 1.5
373.15 K, 120000 kPa | 744 ± 1.6
373.15 K, 130000 kPa | 749.1 ± 1.6
373.15 K, 140000 kPa | 753.9 ± 1.7
383.15 K, 10000 kPa | 645.5 ± 1.2
383.15 K, 20000 kPa | 659.9 ± 1.2
383.15 K, 30000 kPa | 671.9 ± 1.2
383.15 K, 40000 kPa | 682.3 ± 1.2
383.15 K, 50000 kPa | 691.4 ± 1.3
383.15 K, 60000 kPa | 699.6 ± 1.3
383.15 K, 70000 kPa | 707.3 ± 1.4
383.15 K, 80000 kPa | 714.4 ± 1.4
383.15 K, 90000 kPa | 720.8 ± 1.5
383.15 K, 100000 kPa | 726.9 ± 1.5
383.15 K, 110000 kPa | 732.7 ± 1.6
383.15 K, 120000 kPa | 738.2 ± 1.6
383.15 K, 130000 kPa | 743.3 ± 1.7
383.15 K, 140000 kPa | 748.2 ± 1.7
393.15 K, 10000 kPa | 634.9 ± 1.2
393.15 K, 20000 kPa | 650.5 ± 1.2
393.15 K, 30000 kPa | 663.1 ± 1.2
393.15 K, 40000 kPa | 674.3 ± 1.2
393.15 K, 50000 kPa | 684.3 ± 1.3
393.15 K, 60000 kPa | 693 ± 1.3
393.15 K, 70000 kPa | 700.9 ± 1.4
393.15 K, 80000 kPa | 708.2 ± 1.4
393.15 K, 90000 kPa | 714.9 ± 1.5
393.15 K, 100000 kPa | 721.2 ± 1.5
393.15 K, 110000 kPa | 727.2 ± 1.6
393.15 K, 120000 kPa | 732.8 ± 1.6
393.15 K, 130000 kPa | 738.1 ± 1.7
393.15 K, 140000 kPa | 742.9 ± 1.7
403.15 K, 10000 kPa | 623.9 ± 1.2
403.15 K, 20000 kPa | 640.6 ± 1.2
403.15 K, 30000 kPa | 654.5 ± 1.2
403.15 K, 40000 kPa | 666.1 ± 1.3
403.15 K, 50000 kPa | 676.3 ± 1.3
403.15 K, 60000 kPa | 685.3 ± 1.3
403.15 K, 70000 kPa | 693.6 ± 1.4
403.15 K, 80000 kPa | 701.1 ± 1.4
403.15 K, 90000 kPa | 708.2 ± 1.5
403.15 K, 100000 kPa | 714.9 ± 1.5
403.15 K, 110000 kPa | 721.1 ± 1.6
403.15 K, 120000 kPa | 726.9 ± 1.6
403.15 K, 130000 kPa | 732.3 ± 1.7
403.15 K, 140000 kPa | 737.4 ± 1.8
